In patent US10556888B2, “Pyrazole compounds or salts thereof, preparation methods therefor, herbicidal compositions and use thereof” (QINGDAO KINGAGROOT CHEMICAL COMPOUNDS CO., LTD, priority 2015, dated 2020):

Columns and labels:
[1] = tested on: Monocotyledonous and dicotyledonous weed; assay: Post-emergence test experiment, weed control effect (Table 2); format: in vivo; design: key to weed control effect, Setaria viridis (level) / weed control effect, Rorippa indica (level) / weed control effect, Abutilon theophrasti (level) / weed control effect, Echinochloa crus-galli (level) / weed control effect, Digitaria sanguinalis (level): Level 10: completely dead; Level 9: above 90% growth inhibition rate; Level 8: above 80% growth inhibition rate; Level 7: above 70% growth inhibition rate; Level 6: above 60% growth inhibition rate; Level 5: above 50% growth inhibition rate; Level 4: above 30% growth inhibition rate; Level 3: above 20% growth inhibition rate; Level 2: above 10% growth inhibition rate; Level 1: above 1-10% growth inhibition rate; Level 0: no effect; settings: 3 weeks after spraying, greenhouse
In short: (§1)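 Compounds, dissolved in acetone, mixed with Tween 80 and diluted in water, were sprayed post-emergence onto greenhouse-grown weeds and crops at the 2-3 leaf stage (2-3 weeks post-sowing). Plants then grown 3 more weeks in the greenhouse before evaluation.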

[2] = tested on: main crop (wheat, corn, rice, soybean, cotton, oilseed, millet and sorghum); assay: Post-emergence test experiment, main crops (Table 2); format: in vivo; design: key: Level 10: completely dead; Level 9: above 90% growth inhibition rate; Level 8: above 80% growth inhibition rate; Level 7: above 70% growth inhibition rate; Level 6: above 60% growth inhibition rate; Level 5: above 50% growth inhibition rate; Level 4: above 30% growth inhibition rate; Level 3: above 20% growth inhibition rate; Level 2: above 10% growth inhibition rate; Level 1: above 1-10% growth inhibition rate; Level 0: no effect; settings: 3 weeks after spraying, greenhouse
In short: as §1

SMILES | weed control effect, Abutilon theophrasti (level) ([1]; 30 g/ha) | weed control effect, Bidens pilosa (level) ([1]; 30 g/ha) | weed control effect, Digitaria sanguinalis (level) ([1]; 30 g/ha) | weed control effect, Echinochloa crus-galli (level) ([1]; 30 g/ha) | weed control effect, Rorippa indica (level) ([1]; 30 g/ha) | weed control effect, Setaria viridis (level) ([1]; 30 g/ha) | effect on crop, corn (level) ([2]; 30 g/ha) | effect on crop, rice (level) ([2]; 30 g/ha) | effect on crop, wheat (level) ([2]; 30 g/ha) | weed control effect, Abutilon theophrasti (level) ([1]; 120 g/ha) | weed control effect, Bidens pilosa (level) ([1]; 120 g/ha) | weed control effect, Digitaria sanguinalis (level) ([1]; 120 g/ha) | weed control effect, Echinochloa crus-galli (level) ([1]; 120 g/ha) | weed control effect, Rorippa indica (level) ([1]; 120 g/ha) | weed control effect, Setaria viridis (level) ([1]; 120 g/ha) | effect on crop, corn (level) ([2]; 120 g/ha) | effect on crop, rice (level) ([2]; 120 g/ha) | effect on crop, wheat (level) ([2]; 120 g/ha) | other results
CCn1nc(C)c(C(=O)c2ccc(S(C)(=O)=O)c(Cn3cccn3)c2Cl)c1OC(=O)c1cn(C)nc1C [Compound 89] | 7 (Level 7: above 70% growth inhibition rate) | 7 (Level 7: above 70% growth inhibition rate) | 7 (Level 7: above 70% growth inhibition rate) | 10 | 10 | 8 (Level 8: above 80% growth inhibition rate) | 1 (Level 1: above 1-10% growth inhibition rate) | 1 (Level 1: above 1-10% growth inhibition rate) | 0 |  |  |  |  |  |  |  |  |  | 
CCn1nc(C2CC2)c(C(=O)c2ccc(S(C)(=O)=O)c(Cn3cc(C)cn3)c2Cl)c1OC(=O)c1cnn(C)c1 [Compound 91] |  |  |  |  |  |  |  |  |  | 6 (Level 6: above 60% growth inhibition rate) | 6 (Level 6: above 60% growth inhibition rate) | 1 (Level 1: above 1-10% growth inhibition rate) | 10 | 4 (Level 4: above 30% growth inhibition rate) | 3 (Level 3: above 20% growth inhibition rate) | 0 | 0 | 0 | 
CCOc1c(C(=O)Oc2c(C(=O)c3ccc(S(C)(=O)=O)c(COC)c3Cl)c(C)nn2CC)cnn1C [Compound 92] | 5 (Level 5: above 50% growth inhibition rate) | 7 (Level 7: above 70% growth inhibition rate) | 8 (Level 8: above 80% growth inhibition rate) | 10 | 10 | 10 | 1 (Level 1: above 1-10% growth inhibition rate) | 3 (Level 3: above 20% growth inhibition rate) | 0 |  |  |  |  |  |  |  |  |  | 
CCOc1c(C(=O)Oc2c(C(=O)c3ccc(S(C)(=O)=O)c(Cn4nc(C)cc4C)c3Cl)cnn2CC)cnn1C [Compound 93] |  |  |  |  |  |  |  |  |  | 6 (Level 6: above 60% growth inhibition rate) | 6 (Level 6: above 60% growth inhibition rate) | 1 (Level 1: above 1-10% growth inhibition rate) | 10 | 4 (Level 4: above 30% growth inhibition rate) | 3 (Level 3: above 20% growth inhibition rate) | 0 | 0 | 0 | 
CCc1nn(CC)c(OC(=O)c2cn(C)nc2C)c1C(=O)c1ccc(S(C)(=O)=O)c(COCC(F)F)c1Cl [Compound 94] |  |  |  |  |  |  |  |  |  |  |  |  |  |  |  |  |  |  | weed control effect, Abutilon theophrasti (level) ([1]; 60 g/ha): 10; weed control effect, Bidens pilosa (level) ([1]; 60 g/ha): 8 (Level 8: above 80% growth inhibition rate); weed control effect, Digitaria sanguinalis (level) ([1]; 60 g/ha): 8 (Level 8: above 80% growth inhibition rate); weed control effect, Echinochloa crus-galli (level) ([1]; 60 g/ha): 8 (Level 8: above 80% growth inhibition rate); weed control effect, Rorippa indica (level) ([1]; 60 g/ha): 10; weed control effect, Setaria viridis (level) ([1]; 60 g/ha): 10; effect on crop, corn (level) ([2]; 60 g/ha): 0; effect on crop, rice (level) ([2]; 60 g/ha): 3 (Level 3: above 20% growth inhibition rate); effect on crop, wheat (level) ([2]; 60 g/ha): 0
CCc1nn(CC)c(OC(=O)c2cn(C)nc2C)c1C(=O)c1ccc(S(C)(=O)=O)c(Cn2nc(C)cc2C)c1Cl [Compound 95] |  |  |  |  |  |  |  |  |  | 6 (Level 6: above 60% growth inhibition rate) | 6 (Level 6: above 60% growth inhibition rate) | 1 (Level 1: above 1-10% growth inhibition rate) | 10 | 4 (Level 4: above 30% growth inhibition rate) | 3 (Level 3: above 20% growth inhibition rate) | 0 | 0 | 0 | 
